According to patent US20240306641A1, “P-BOOSTER” (EUROCHEM ANTWERPEN, priority 2021, published 2024):

What was measured:
Assay type in all cases: in vivo
rice cultivar Nipponbare = assay: Rice box experiment (plant height); details: low phosphate 0.025 mM, 10 μM compound, 13 days after germination
Protocol: All Arabidopsis plant experiments were performed using the Arabidopsis thaliana Columbia-0 background. The Arabidopsis pSPX1::GUS line is described in the […] 2008, 54: 965-975. For rice, the cultivar Nipponbare was used. For maize, the cultivars DKC 2931 and 8104 were used for regular pot experiments and sand-based pot experiments, respectively. For soybean, the cultivar Primus was used. […] The medium was solidified due to the addition of 0.6% Gelrite, unless stated otherwise. […]
Arabidopsis primary root growth experiments were done on MS1/2 on vertical standing plates and roots were measured 11 days after germination. Roots were imaged using a flatbed scanner (EPSON Expression 11000XL) and root length was measured using ImageJ software. Arabidopsis shoot biomass was determined in 11 days after germination and growth on vertical standing plates with modMS. Arabidopsis leaf area was measured 21 days after germination on horizontal plates with modMS medium. Plates were scanned from the top using a flatbed scanner (EPSON Expression 11000XL) and the visible leaf area was measured using ImageJ software. […] Plant height was measured 11 days after germination. […] Plant height was measured 13 days after germination. […]

maize cultivar DKC 2931 = assay: Regular maize pot experiment (potting soil); details: low phosphate, 10 μM compound
Protocol: All Arabidopsis plant experiments were performed using the Arabidopsis thaliana Columbia-0 background. The Arabidopsis pSPX1::GUS line is described in the […] 2008, 54: 965-975. For rice, the cultivar Nipponbare was used. For maize, the cultivars DKC 2931 and 8104 were used for regular pot experiments and sand-based pot experiments, respectively. For soybean, the cultivar Primus was used. […] The medium was solidified due to the addition of 0.6% Gelrite, unless stated otherwise. In case of vertical plates (root length and root hair measurements), the medium was supplied with 0.5% of sucrose and 1 μM (low phosphate, 1 μM KH2PO4, 9.9 mM KCl), 10 μM (low phosphate 10 μM KH2PO4, 9.9 mM KCl) or 1.25 mM KH2PO4 (high phosphate). Arabidopsis seeds were stratified for 2 days at 4° C. before germination. Seedlings were germinated in climate-controlled growth chambers at 22° C. under continuous light ([…] m^−2 s^−1). Husked rice seeds were germinated on wetted Whatman paper for 2 days at 37° C. and then transferred to Sterivent boxes or square Petri dishes with solid medium. Maize and soybean seeds were wetted 24 hours at room temperature prior to sowing in pots.
(§1) Regular Arabidopsis, soybean and maize pot experiments used an unfertilized potting soil, which was supplemented at the start of the experiment with 50 ml H2O containing 0.25 g/l NH4NO3 and 0.44 g/l (high phosphate) or no (maize and soybean) or 0.11 g/l KH2PO (Arabidopsis) for low phosphate conditions. For the sand-based maize pot experiment, sand was supplemented with 50 ml H2O containing 0.25 g/l NH4NO3 and 0.38 g/l (high phosphate) or 0.02 g/l (low phosphate) KH2PO4. Potassium was balanced via addition of KCl. Compound concentration was 10 μM, calculated based on the total water content after watering, and was added at the start of the experiment (Arabidopsis) or once a week (maize). Indexed chlorophyll contents were received via a SPAD 502 Plus Chlorophyll Meter. All parameters in the sand experiment, except the rate of leaf 4 (measured the first 4 days after emergence), were measured 19 days after sowing. Measurements in the pot experiments with potting soil were done after 4 weeks of growth, except for leaf 5, which was measured at 26 days. The long term maize pot experiment was performed on the automated Phenovision platform (see Mertens et al, 2021, https://doi.org/10.3389/fpls.2021.640914) with maize cultivars B104 and DKC2931. End point measurements occurred after 90 days (B104) or 70 days (DKC2931). Plants were grown on an unfertilized potting soil, which was fertilized bi-weekly with 50 mL modified Hoagland solution (2.5× concentrated; but with 0.25 mM KH2PO4).

[1] = test system: Arabidopsis thaliana Columbia-0; assay: Arabidopsis pot experiment (rosette size, soil phosphate, anthocyanin)
Protocol: as §1, with “KH2PO4). Col-0 ecotype Arabidopsis seeds were sown in 96-well plates containing 150 μl of low phosphate modMS liquid medium containing 1% of sucrose. Compounds was added in 50 μM concentration (1% DMSO). 7 days after germination, plates were scanned using a flatbed scanner (EPSON Expression 11000XL) and wells containing non-germinated seedlings were excluded from the following analysis. Plants were removed from each well and 50 μl of medium was recovered from each well and used for molybdenum blue staining as described in Plant Physiology 2008, 146:1673-1686. To measure the phosphate level in soil, Olsen P extraction was used on 1 g of air dried soil, 500 ul of extract was used for molybdenum blue staining as described in The Plant cell 2013, 25:1641-1656. Values were expressed relative to the low phosphate control. Col-0 ecotype Arabidopsis seeds were sown in 96-well plates containing 150 μl of low phosphate modMS liquid medium containing 1% of sucrose. […] Extraction and quantification of anthocyanin levels was carried out according to The Plant cell 2013, 25:1641-1656. Anthocyanin levels were quantified by measuring absorption at 530 and 657 nm using a spectrophotometer and normalized to fresh weight input, and expressed relative to the low phosphate control. […]” for “KH2PO4).”

Molecule `CCN(CCCNc1ncnc2nc(N)ccc12)c1ccccc1` [Example 1] has a Plant height (rice cultivar Nipponbare) of 4.1 cm, a Plant height (maize cultivar DKC 2931; 4 weeks) of 59 cm and a Shoot weight (maize cultivar DKC 2931; 4 weeks) of 4 g. The “Leaf 5” value (maize cultivar DKC 2931; 26 days) was 43 cm, the Relative anthocyanin level ([1]; Arabidopsis pot, 4-week old plant, relative to low phosphate control (=1)) was 0.7 and the “Phosphate level in soil (relative value)” value ([1]; Arabidopsis pot, Olsen P, after 4 weeks, relative to low phosphate control (=1)) was 0.8. For the same molecule, the Rosette size ([1]; Arabidopsis pot, low phosphate, 10 μM compound, 4 weeks) was 17 cm^2 and the “Anthocyanin level in the leaves (in words)” value ([1]; plants grown in pots) was “reduced”.
